From patent US11344559B2, “PI3KGAMMA inhibitors” (The Regents of the University of California, priority 2019, dated 2022)

Columns and labels:
Type in all cases: cell-based
[1] = test system: IL12b protein levels; test: IL12b protein expression (ELISA) after M1 polarization with bulk synthesized compounds; settings: 10 micromolar compound 1 h before IFNgamma+LPS (M1) polarization, supernatants 24 h post-stimulation, read-out: IL12B protein expression (Percent of Control)
Experimental: Compounds with the highest activity levels in the primary, secondary and tertiary screening assays were resynthesized in bulk and then tested for their effects on protein expression of inflammatory cytokines after M1 (IFNg+LPS) macrophage polarization. Bone marrow derived macrophages were plated into 12 well plates at d7 post-harvest and incubated for 1 h with 10 micromolar compound prior to polarization in the presence of bulk synthesized compounds 1-14. Cells were then polarized by the addition of either IFNgamma+LPS (M1) and cell supernatants were harvested 24 h post-stimulation. Methods of inducing macrophage polarization are known in the art, e.g., as described in Mosser et al., Curr. Protoc. Immunol. 2008 November; Chapter 14:Unit 14.2. doi: 10.1002/0471142735.im1402s83. After 24 h, cell supernatants were removed and screened for IL12b protein levels using an enzyme linked immunosorbent assay (ELISA). Increases in IL12b protein levels induced by compounds were recorded as percent increase in IL12b protein expression compared to IL12b expression in the absence of compounds.

[2] = test system: CCL2 protein levels; test: Secondary screening: CCL2 protein ELISA in M1 polarized bone marrow derived macrophages; settings: Z score of CCL2 protein (ELISA); 1 μM compound, 24 h, IFNg+LPS (M1) polarized bone marrow derived macrophages
Experimental: (§1) Primary screening was performed on 507 compounds identified by the above-described computational screening. Bone marrow derived macrophages were plated into 96 well plates at d7 post-harvest and incubated with 1 μM compound and polarization reagents for 24 h. Primary screening was performed on cells polarized with interferon gamma (IFNg)+Lipopolysaccharide (LPS) (M1 polarization). Methods of inducing macrophage polarization are known in the art, e.g., as described in Mosser et al., Curr. Protoc. Immunol. 2008 November; Chapter 14:Unit 14.2. doi: 10.1002/0471142735.im1402s83. After 24 h, cell supernatants were removed and screened for IL12b and CCL2 protein levels using an enzyme linked immunosorbent assay (ELISA). Additionally, viability of polarized macrophages incubated with compounds was measured using an MTT assay, a colorimetric assay that measures cell metabolic activity by quantifying NAD(P)H-dependent cellular oxidoreductase reduction of the tetrazolium dye MTT 3-(4,5-dimethylthiazol-2-yl)-2,5-diphenyltetrazolium bromide to its insoluble purple colored formazan. Compounds that increased IL12b protein levels or decreased CCL2 protein levels and reduced viability less than 10% were selected for secondary screening. Secondary screening was performed as described for primary screening with a subset of 141 of the original compounds.

[3] = test system: IL12b protein levels; test: Secondary screening: IL12b protein ELISA in M1 polarized bone marrow derived macrophages; settings: Z score of IL12b protein (ELISA); 1 μM compound, 24 h, IFNg+LPS (M1) polarized bone marrow derived macrophages
Experimental: as §1

[4] = test system: IL12b protein levels; test: Primary screening: IL12b protein ELISA in M1 polarized bone marrow derived macrophages; settings: Z score of IL12b protein (ELISA); 1 μM compound, 24 h, IFNg+LPS (M1) polarized bone marrow derived macrophages
Experimental: as §1

[5] = test system: CCL2 protein levels; test: Primary screening: CCL2 protein ELISA in M1 polarized bone marrow derived macrophages; settings: Z score of CCL2 protein (ELISA); 1 μM compound, 24 h, IFNg+LPS (M1) polarized bone marrow derived macrophages
Experimental: as §1

[6] = test system: IL-1beta expression; test: RNA screening: IL-1beta expression in M1 (IFNg+LPS) polarized macrophages, quantitative RT-PCR; set-up: key: −: significant decrease in mRNA vs control (mRNA levels above 50% of control); −−: significant decrease in mRNA vs control (mRNA levels below 50% of control); +: significant increase in mRNA vs control; =: no significant change vs control; settings: mRNA vs control; 1 μM compound 1 h before IFNgamma+LPS (M1) polarization, mRNA harvested 6 h post-stimulation
Experimental: (§2) Compounds with the highest activity levels in the primary and secondary screening assays were tested for their effects on transcription of inflammatory cytokines after M1 (IFNg+LPS) and M2 (IL-4) macrophage polarization. Bone marrow derived macrophages were plated into 12 well plates at d7 post-harvest and incubated for 1 h with 1 μM compound prior to polarization. Cell were then polarized by the addition of either IFNgamma+LPS (M1) or IL-4 (M2) and mRNA was harvested 6 h post-stimulation. Quantitative RT-PCR was used to determine the levels of IL-1beta expression in M1 polarized macrophages and of Arginase-1 and TGF-beta expression in M2 polarized macrophages. Compounds were selected from RNA screening that increased IL-1beta expression or decreased Arginase-1 or TGF-beta expression.

[7] = test system: Arginase-1 expression; test: RNA screening: Arginase-1 expression in M2 (IL-4) polarized macrophages, quantitative RT-PCR; settings: Macrophage; mRNA vs control; 1 μM compound 1 h before IL-4 (M2) polarization, mRNA harvested 6 h post-stimulation; read-out: RNA Screening IL-4 Arg 1
Experimental: as §2

[8] = test system: TGF-beta expression; test: RNA screening: TGF-beta expression in M2 (IL-4) polarized macrophages, quantitative RT-PCR; set-up: key: −: significant decrease in mRNA vs control (mRNA levels above 50% of control); −−: significant decrease in mRNA vs control (mRNA levels below 50% of control); +: significant increase in mRNA vs control; =: no significant change vs control; settings: mRNA vs control; 1 μM compound 1 h before IL-4 (M2) polarization, mRNA harvested 6 h post-stimulation
Experimental: as §2

SMILES | activity at 10 µM [1] [%] | Secondary Screen ZCCL2 [2] | Secondary Screen ZIL12b [3] | Primary Screen ZIL12b [4] | Primary Screen ZCCL2 [5] | RNA Screening Ifng + LPS Il1b [6] | mrna remaining at 1 µM [7] [%] | RNA Screening IL-4 Tgfb [8]
CCCn1cc(NC(=O)NCc2nn(C)c3ccc(C)cc23)nn1 [Compound 1, N-[(1,5-dimethyl-1H-indazol-3-yl)methyl]-N′-(1-propyl-1H-1,2,3-triazol-4-yl)urea] | 134 | −0.72 | 1.05 | 0.93 | −1.85 | – | – | –
COc1cccc2ccc(-c3ccc(N)nc3)nc12 [Compound 2, 5-(8-methoxyquinolin-2-yl)pyridin-2-amine] | – | 0.8 | 0.81 | – | – | + | > 50 | − (significant decrease in mRNA vs control (mRNA levels above 50% of control))
CCc1n[nH]c(SCC(=O)NCCC(=O)Nc2nccs2)n1 [Compound 3, 3-({[(3-ethyl-1H-1,2,4-triazol-5-yl)thio]acetyl}amino)-N-1,3-thiazol-2-ylpropanamide] | – | 1.33 | 1.56 | – | – | = | > 50 | =
CCc1cc(NCCc2csc(N)n2)n2nc(C)c(C)c2n1 [Compound 4, N-[2-(2-amino-1,3-thiazol-4-yl)ethyl]-5-ethyl-2,3-dimethylpyrazolo[1,5-a]pyrimidin-7-amine] | 92 | −1.61 | 0.58 | 1.46 | 1.08 | – | – | –
CC(=O)N1CCCn2nc(CNc3nc4ccccc4s3)cc2C1 [Compound 5, N-[(5-acetyl-5,6,7,8-tetrahydro-4H-pyrazolo[1,5-a][1,4]diazepin-2-yl)methyl]-1,3-benzothiazol-2-amine] | 127 | −1.33 | 0.72 | 1.64 | 1.04 | – | – | –
CC(C)NC(=O)NCC1CCCN(Cc2ccc3c(c2)OCCO3)C1 (stereo not drawn) [Compound 6, N-{[1-(2,3-dihydro-1,4-benzodioxin-6-ylmethyl)piperidin-3-yl]methyl}-N′-isopropylurea] | 120 | 0.16 | 2.4 | 1.96 | 0.94 | + | > 50 | − (significant decrease in mRNA vs control (mRNA levels above 50% of control))
CC(O)c1cn(CC2CCN(C(=O)c3cscn3)CC2)nn1 (stereo not drawn) [Compound 7, 1-(1-{[1-(1,3-thiazol-4-ylcarbonyl)-4-piperidinyl]methyl}-1H-1,2,3-triazol-4-yl)ethanol] | 114 | −1.5 | 1.58 | 0.38 | −1.62 | + | < 50 | −− (significant decrease in mRNA vs control (mRNA levels below 50% of control))
CC(=O)N1CC2(CCN(S(C)(=O)=O)CC2)CC1C(=O)O (stereo not drawn) [Compound 8, 2-acetyl-8-(methylsulfonyl)-2,8-diazaspiro[4.5]decane-3-carboxylic acid] | 118 | −1.79 | 0.74 | 0.13 | −3.6 | – | – | –
O=C(O)c1nc[nH]c1C(=O)N1CCN(c2ccccn2)CC1 [Compound 9, 5-[(4-pyridin-2-ylpiperazin-1-yl)carbonyl]-1H-imidazole-4-carboxylic acid] | 131 | −1.53 | 0.92 | 0.54 | −5.07 | + | > 50 | +
CC(=O)N1CCN(Cc2cnn(-c3ccccc3Cl)c2)CC(O)C1 (stereo not drawn) [Compound 10, 1-acetyl-4-{[1-(2-chlorophenyl)-1H-pyrazol-4-yl]methyl}-1,4-diazepan-6-ol] | 121 | −0.36 | 1.64 | 0.55 | −1.59 | = | < 50 | −− (significant decrease in mRNA vs control (mRNA levels below 50% of control))
OCCc1cn(C2CCN(Cc3cccnc3)CC2)nn1 [Compound 11, 2-{1-[1-(3-pyridinylmethyl)-4-piperidinyl]-1H-1,2,3-triazol-4-yl}ethanol] | 127 | −1.46 | 2.04 | −1.17 | −2.99 | + | < 50 | − (significant decrease in mRNA vs control (mRNA levels above 50% of control))
CCc1n[nH]c(SCC(=O)N2CCC3(CC2)CC(C(=O)O)N(C)C3)n1 (stereo not drawn) [Compound 12, 8-{[(3-ethyl-1H-1,2,4-triazol-5-yl)thio]acetyl}-2-methyl-2,8-diazaspiro[4.5]decane-3-carboxylic acid] | 133 | – | – | – | – | – | – | –
CN(C)c1cccc(C(=O)N2CCC3(CC2)CC(C(=O)O)N(C)C3)c1 (stereo not drawn) [Compound 13, 8-[3-(dimethylamino)benzoyl]-2-methyl-2,8-diazaspiro[4.5]decane-3-carboxylic acid] | 125 | – | – | – | – | – | – | –
CNc1ncccc1C(=O)N1CCC2(CC1)CC(C(=O)O)N(C)C2 (stereo not drawn) [Compound 14, 2-methyl-8-{[2-(methylamino)-3-pyridinyl]carbonyl}-2,8-diazaspiro[4.5]decane-3-carboxylic acid] | 122 | – | – | – | – | – | – | –
CCC(=O)N1CCC(c2ccc3c(c2)OCO3)C(O)C1 (stereo not drawn) [Compound 15, 1-(4-(benzo[d][1,3]dioxol-5-yl)-3-hydroxypiperidin-1-yl)propan-1-one] | – | −0.95 | 0.25 | – | – | + | < 50 | –
O=C(O)CCc1cc2n(n1)CCCN(Cc1c[nH]nc1C(=O)O)C2 [Compound 16, 4-((2-(2-carboxyethyl)-7,8-dihydro-4H-pyrazolo[1,5-a][1,4]diazepin-5(6H)-yl)methyl)-1H-pyrazole-3-carboxylic acid] | – | −0.84 | 0.56 | – | – | + | < 50 | –
